Measurements taken from patent US12610947B2, “Tobacco axillary bud growth inhibitors and methods of inhibiting growth of tobacco axillary buds” (Drexel Chemical Company, priority 2020, dated 2026).

Legend:
TH241 tobacco = test: Example 3 plot study: phytotoxicity on a scale of 0 to 5; format: in vivo; settings: for Phytotoxicity: scale of 0 to 5
Method: (§1) A third study was conducted comparing the effects of various treatment compositions on TH241 tobacco. The study was designed in random blocks. Each test plot was formed by two rows of ten tobacco plants. Each treatment was applied to three separate plots. […] The first application was performed when the first axillary shoots were observed. Additional applications were performed when new axillary shoots were observed. Shoots longer than 3 cm were manually removed at the time of each application. The applications were performed using a manual backpack sprayer, spraying at a low pressure above the plant toward the stalk so that the composition ran down the stalk, contacting the leaf axils. Approximately 13 to 26 milliliters of composition were applied to each plant. The phytotoxicity of the treatment compositions was assessed and recorded on a scale of 0 to 5 based on visible symptoms. The number and size of the axil shoots was recorded every 7 to 14 days following the initial treatment application. Axillary shoots were assigned a level according to their length. Shoots less than 3 cm in length were assigned to level 1. Shoots between 3 and 15 cm were assigned to level 2. Shoots between 15 and 30 cm were assigned to level 3. Shoots between 30 and 45 cm were assigned to level 4. Shoots between 45 and 60 cm were assigned to level 5. And shoots greater than 60 cm were assigned to level 6. An estimated average length of shoots in each plot could then be calculated according to the number of shoots assigned to each level.
Phytotoxicity was assessed 9 days and 26 days after the first application of each treatment. […] Only mild symptoms of phytotoxicity were observed on the remaining plants. […] The phytotoxicity was likely more apparent due to the fact that by day 26, two pelargonic acid treatments had already been performed. […] No further evaluations were carried out.

[1] = test system: axillary shoots of TH241 tobacco; test: Example 3 plot study: axillary shoot length and effectiveness vs non-treated control; format: in vivo; settings: for Axillary Shoot Length Results: level assigned by shoot length; for Axillary Shoot Length Results / Effectiveness Results: dosage and applications per Table 8; for Effectiveness Results: compared to the non-treated control group; for Effectiveness: compared to non-treated control
Method: as §1, with “level. […] For this reason, treatments 1, 3, 4, and 5 were applied three times; treatments 2, 6, and 7 were applied twice; and treatments 8 and 9 were applied only once. The effectiveness of each treatment method was calculated as compared to the non-treated control group.” for “level.”

tobacco = test: Example 4 (Farm A and Farm B): phytotoxicity on a scale of 0 to 5; settings: in vivo
Method: (§2) A fourth study was conducted simultaneously by two separate farms (designated Farm A and Farm B) to further assess the effectiveness of the various treatments including under varying conditions.
The overall study was designed in random blocks. The treatments utilized were Biosucker, Bioantak (37 DOT), Antak-68.5, Beloukha, Sharpen 33%, and a control treatment that was untreated. On each farm, each test plot was formed by a single line of 20 plants. Each treatment was applied to three separate plots on each farm. […] The first application was applied when the first axillary shoots were observed. Additional applications were applied when the new axillary shoots were observed. Shoots longer than 3 cm were manually removed at the time of each application. The applications were performed using a manual backpack sprayer, spraying at a low pressure above the plant toward the stalk so that the composition ran down the stalk, contacting the leaf axils. Approximately 20 milliliters of composition were applied to each plant. The phytotoxicity of the treatment compositions was assessed and recorded on a scale of 0 to 5 based on visible symptoms. The number and size of the axil shoots was recorded every 6 to 8 days following the initial treatment application. […] An estimated average length of shoots in each plot could then be calculated according to the number of shoots assigned to each level. […]

[2] = test system: axillary shoots of tobacco; test: Example 4 (Farm A and Farm B): axillary shoot length, effectiveness vs non-treated control, effective period; format: in vivo; settings: Farm A, before second application
Method: as §2
The overall study was designed in random blocks. The treatments utilized were Biosucker, Bioantak (37 DOT), Antak-68.5, Beloukha, Sharpen 33%, and a control treatment that was untreated. On each farm, each test plot was formed by a single line of 20 plants. Each treatment was applied to three separate plots on each farm. […] The first application was applied when the first axillary shoots were observed. Additional applications were applied when the new axillary shoots were observed. Shoots longer than 3 cm were manually removed at the time of each application. […] The phytotoxicity of the treatment compositions was assessed and recorded on a scale of 0 to 5 based on visible symptoms. The number and size of the axil shoots was recorded every 6 to 8 days following the initial treatment application. […] An estimated average length of shoots in each plot could then be calculated according to the number of shoots assigned to each level.
The results of the length of axillary shoots measured at Farm A and Farm B are shown in Table 15 and Table 16, respectively. […]
The effectiveness of each treatment method and each farm was calculated as compared to the non-treated control group.

In the case of `CCCCCCCCC(=O)O` [Pelargonic acid, pelargonic acid], the Phytotoxicity (TH241 tobacco; August 12, D + 26 days) was 2.0 B, the symptoms of phytotoxicity (TH241 tobacco; August 21, after a third application) was “symptoms of phytotoxicity were still more pronounced” and the Phytotoxicity (TH241 tobacco; July 26, D + 9 days) was 1.6 C. For the same compound, the “Axillary Shoot Length Results” value ([1]; 5-Aug, D + 19 days) was 1.3 Cd, the “Axillary Shoot Length Results” value ([1]; 12-Aug, D + 26 days) was 2.6 C and the “Axillary Shoot Length Results” value ([1]; 21-Aug, D + 35 days) was 1.2 Abc. For the same compound, the “Axillary Shoot Length Results” value ([1]; 26-Jul, D + 9 days) was 1.2 C, the “Axillary Shoot Length Results” value ([1]; 29-Aug, D + 43 days) was 2.3 bcde and the “Effectiveness Results” value ([1]; Aug 5, D + 19 days) was 61%. For the same compound, the “Effectiveness Results” value ([1]; Aug 12, D + 26 days) was 37%, the “Effectiveness Results” value ([1]; Aug 21, D + 35 days) was 80% and the “Effectiveness Results” value ([1]; Aug 29, D + 43 days) was 61%. For the same compound, the “Effectiveness Results” value ([1]; July 26, D + 9 days) was 39%, the Effectiveness ([1]; Oct. 10, D + 85 days) was 8% and the “Axillary Shoot Length Results” value ([1]; Oct. 10, D + 85 days) was 5.5 B. The “Effectiveness Results” value ([1]; Sept. 11, D + 56 days) was 35%, the “Axillary Shoot Length Results” value ([1]; Sept. 11, D + 56 days) was 3.9 C and the “Effectiveness Results” value ([1]; Sept. 24, D + 69 days) was 16%. For the same compound, the “Axillary Shoot Length Results” value ([1]; Sept. 24, D + 69 days) was 5.1 C, the Effectiveness ([1]; Sept. 30, D + 75 days) was 9% and the “Axillary Shoot Length Results” value ([1]; Sept. 30, D + 75 days) was 5.4 B. For the same compound, the shoot length ([1]; after only 9 days) was ~3 cm, the phytotoxicity symptoms (tobacco) was “highest levels of burns and deformation” and the “day until which shoot length was the same as the standard treatment” value [2] was 27 days.
